{"source": "patent US20220031596A1", "about": "“ANTI-AGING AGENT AND ANTI-AGING METHOD” (priority 2018, published 2022)", "key": {"[1]": {"tested_on": "parathyroid hormone concentration in the plasma", "experiment": "Evaluation of parathyroid hormone secretion promoting effect (plasma parathyroid hormone, 24-week oral ingestion)", "type": "in vivo, human", "settings": "for parathyroid hormone concentration in the plasma, 0 weeks (before ingestion): baseline; for parathyroid hormone concentration in the plasma, 0 weeks (before ingestion) / parathyroid hormone concentration in the plasma, 24 weeks (after ingestion) / parathyroid hormone concentration in the plasma, Change rate (24 weeks - 0 weeks): mean±SD", "experimental": "In order to confirm a change in the parathyroid hormone quantity before and after ingestion of the nicotinamide mononucleotide, a test was conducted on healthy males and females aged 50 to 70 years.\nAs a sample of Working Example 6, a capsule formulation containing the nicotinamide mononucleotide and starch (100 mg (low dose) and 200 mg (high dose) of the nicotinamide mononucleotide in 4 capsules) (manufactured by SHINKOWA PHARMACEUTICAL Co., Ltd.) was used.\n(§1) Each group consisting of five healthy males and females aged 50 to 70 years in an unbiased age group ingested the above low dose capsule formulation once a day by 4 capsules for 24 weeks (total 10 subjects, a low dose group: 100 mg/daily ingestion). On the other hand, each group consisting of five healthy males and females aged 50 to 70 years in the unbiased age group ingested the above high dose capsule formulation once a day by 4 capsules for 24 weeks (total 10 subjects, a high dose group: 200 mg/daily ingestion). In order to conduct appropriate evaluations, those who had been regularly using medical products for chronic diseases, those who had been consuming healthy foods that may affect clinical research, and those who were currently participating in other clinical researches or clinical trials or had participated in other clinical researches or clinical trials within the last three months were excluded from the subject for the evaluation. The capsule formulations were ingested at 10 am (between meals and fasting state) together with water or lukewarm water (oral administration).\nMeasurement of the parathyroid hormone quantity in the plasma was conducted by requesting the measurement to an external public organization according to a usual method. FIGS. 12a to 12c indicate transitions of the parathyroid hormone concentration (pg/ml) in the plasma for 24 weeks. FIG. 12a represents the transitions of the whole subjects; FIG. 12b represents the transitions of the male subjects; FIG. 12c represents the transitions of the female subjects. Further, FIGS. 13a to 13c indicate change rates (%) of the blood parathyroid hormone concentration up to 24 weeks when the nicotinamide mononucleotide was orally administered to the subjects for 24 weeks. FIG. 13a represents the change rates of the whole subjects; FIG. 13b represents the change rates of the male subjects; FIG. 13c represents the change rates of the female subjects. Further, Table 6 indicates the numerical values of the parathyroid hormone concentration (pg/ml) in the plasma before the ingestion of the nicotinamide mononucleotide (0 weeks) and after the ingestion of the nicotinamide mononucleotide (24 weeks). Note that the numerical values represent mean values±standard deviation."}, "[2]": {"tested_on": "prolactin concentration in the plasma", "experiment": "Evaluation of prolactin secretion promoting effect (plasma prolactin, 24-week oral ingestion)", "type": "in vivo, human", "settings": "for prolactin concentration in the plasma, 0 weeks (before ingestion) / prolactin concentration in the plasma, 24 weeks (after ingestion) / prolactin concentration in the plasma, Change rate (24 weeks - 0 weeks): Low Dose Group (100 mg/daily, oral), mean±SD; for prolactin concentration in the plasma, 0 weeks (before ingestion): baseline", "experimental": "In order to confirm a change in the prolactin quantity before and after ingestion of the nicotinamide mononucleotide, a test was conducted on healthy males and females aged 50 to 70 years.\nAs a sample of Working Example 9, a capsule formulation containing the nicotinamide mononucleotide and starch (100 mg of the nicotinamide mononucleotide in 4 capsules) (manufactured by SHINKOWA PHARMACEUTICAL Co., Ltd.) was used.\nas §1, with “above” for “above low dose capsule formulation once a day by 4 capsules for 24 weeks (total 10 subjects, a low dose group: 100 mg/daily ingestion). On the other hand, each group consisting of five healthy males and females aged 50 to 70 years in the unbiased age group ingested the above”, “100” for “a high dose group: 200”\nMeasurement of the prolactin quantity in the plasma was conducted by requesting the measurement to an external public organization according to a usual method. FIGS. 18a to 18c indicate transitions of the prolactin concentration (ng/ml) in the plasma for 24 weeks. FIG. 18a represents the transitions of the whole subjects; FIG. 18b represents the transitions of the male subjects; FIG. 18c represents the transitions of the female subjects. Further, FIGS. 19a to 19c indicate change rates (%) of the blood prolactin concentration up to 24 weeks when the nicotinamide mononucleotide was orally administered to the subjects for 24 weeks. FIG. 19a represents the change rates of the whole subjects; FIG. 19b represents the change rates of the male subjects; FIG. 19c represents the change rates of the female subjects. Further, Table 9 indicates the numerical values of the prolactin concentration (ng/ml) in the plasma before the ingestion of the nicotinamide mononucleotide (0 weeks) and after the ingestion of the nicotinamide mononucleotide (24 weeks). Note that the numerical values represent mean values±standard deviation."}, "[3]": {"settings": "Female, High Dose Group (200 mg/daily, oral)"}, "[4]": {"settings": "Female, Low Dose Group (100 mg/daily, oral)"}, "[5]": {"settings": "Male, High Dose Group (200 mg/daily, oral)"}, "[6]": {"settings": "Male, Low Dose Group (100 mg/daily, oral)"}, "[7]": {"settings": "Whole Subjects, High Dose Group (200 mg/daily, oral)"}, "[8]": {"settings": "Whole Subjects, Low Dose Group (100 mg/daily, oral)"}}, "data": [{"molecule": "NC(=O)c1ccc[n+]([C@@H]2O[C@H](COP(=O)([O-])O)[C@@H](O)[C@H]2O)c1", "note": "[nicotinamide mononucleotide]", "values": [{"measurement": "parathyroid hormone concentration in the plasma, 0 weeks (before ingestion)", "setting": "[1]; [3]", "value": "384 ± 88", "unit": "pg/mL"}, {"measurement": "parathyroid hormone concentration in the plasma, 24 weeks (after ingestion)", "setting": "[1]; [3]", "value": "448 ± 114", "unit": "pg/mL"}, {"measurement": "parathyroid hormone concentration in the plasma, Change rate (24 weeks - 0 weeks)", "setting": "[1]; [3]", "value": "64 ± 65", "unit": "pg/mL"}, {"measurement": "parathyroid hormone concentration in the plasma, 0 weeks (before ingestion)", "setting": "[1]; [4]", "value": "328 ± 45", "unit": "pg/mL"}, {"measurement": "parathyroid hormone concentration in the plasma, 24 weeks (after ingestion)", "setting": "[1]; [4]", "value": "394 ± 63", "unit": "pg/mL"}, {"measurement": "parathyroid hormone concentration in the plasma, Change rate (24 weeks - 0 weeks)", "setting": "[1]; [4]", "value": "66 ± 34", "unit": "pg/mL"}, {"measurement": "parathyroid hormone concentration in the plasma, 0 weeks (before ingestion)", "setting": "[1]; [5]", "value": "410 ± 108", "unit": "pg/mL"}, {"measurement": "parathyroid hormone concentration in the plasma, 24 weeks (after ingestion)", "setting": "[1]; [5]", "value": "438 ± 168", "unit": "pg/mL"}, {"measurement": "parathyroid hormone concentration in the plasma, Change rate (24 weeks - 0 weeks)", "setting": "[1]; [5]", "value": "28 ± 77", "unit": "pg/mL"}, {"measurement": "parathyroid hormone concentration in the plasma, 0 weeks (before ingestion)", "setting": "[1]; [6]", "value": "344 ± 69", "unit": "pg/mL"}, {"measurement": "parathyroid hormone concentration in the plasma, 24 weeks (after ingestion)", "setting": "[1]; [6]", "value": "386 ± 108", "unit": "pg/mL"}, {"measurement": "parathyroid hormone concentration in the plasma, Change rate (24 weeks - 0 weeks)", "setting": "[1]; [6]", "value": "42 ± 73", "unit": "pg/mL"}, {"measurement": "parathyroid hormone concentration in the plasma, 0 weeks (before ingestion)", "setting": "[1]; [7]", "value": "397 ± 94", "unit": "pg/mL"}, {"measurement": "parathyroid hormone concentration in the plasma, 24 weeks (after ingestion)", "setting": "[1]; [7]", "value": "443 ± 135", "unit": "pg/mL"}, {"measurement": "parathyroid hormone concentration in the plasma, Change rate (24 weeks - 0 weeks)", "setting": "[1]; [7]", "value": "46 ± 70", "unit": "pg/mL"}, {"measurement": "parathyroid hormone concentration in the plasma, 0 weeks (before ingestion)", "setting": "[1]; [8]", "value": "336 ± 56", "unit": "pg/mL"}, {"measurement": "parathyroid hormone concentration in the plasma, 24 weeks (after ingestion)", "setting": "[1]; [8]", "value": "390 ± 84", "unit": "pg/mL"}, {"measurement": "parathyroid hormone concentration in the plasma, Change rate (24 weeks - 0 weeks)", "setting": "[1]; [8]", "value": "54 ± 55", "unit": "pg/mL"}, {"measurement": "parathyroid hormone concentrations in the plasma, effect of ingestion (in words)", "setting": "[1]; oral, 100 or 200 mg/daily, 24 weeks, FIGS. 12a-12c, 13a-13c", "value": "increased"}, {"measurement": "prolactin concentration in the plasma, 0 weeks (before ingestion)", "setting": "[2]; Female", "value": "8.50 ± 2.71", "unit": "ng/mL"}, {"measurement": "prolactin concentration in the plasma, 24 weeks (after ingestion)", "setting": "[2]; Female", "value": "10.15 ± 3.22", "unit": "ng/mL"}, {"measurement": "prolactin concentration in the plasma, Change rate (24 weeks - 0 weeks)", "setting": "[2]; Female", "value": "1.66 ± 4.32", "unit": "ng/mL"}, {"measurement": "prolactin concentration in the plasma, 0 weeks (before ingestion)", "setting": "[2]; Male", "value": "9.23 ± 1.92", "unit": "ng/mL"}, {"measurement": "prolactin concentration in the plasma, 24 weeks (after ingestion)", "setting": "[2]; Male", "value": "9.58 ± 2.47", "unit": "ng/mL"}, {"measurement": "prolactin concentration in the plasma, Change rate (24 weeks - 0 weeks)", "setting": "[2]; Male", "value": "0.35 ± 1.40", "unit": "ng/mL"}, {"measurement": "prolactin concentration in the plasma, 0 weeks (before ingestion)", "setting": "[2]; Whole Subjects", "value": "8.86 ± 2.25", "unit": "ng/mL"}, {"measurement": "prolactin concentration in the plasma, 24 weeks (after ingestion)", "setting": "[2]; Whole Subjects", "value": "9.87 ± 2.72", "unit": "ng/mL"}, {"measurement": "prolactin concentration in the plasma, Change rate (24 weeks - 0 weeks)", "setting": "[2]; Whole Subjects", "value": "1.00 ± 3.10", "unit": "ng/mL"}, {"measurement": "prolactin concentrations in the plasma, effect of ingestion (in words)", "setting": "[2]; oral, 100 mg/daily, 24 weeks, FIGS. 18a-18c, 19a-19c", "value": "increased"}]}]}
